Measured values from US6821927B1 (priority 1999, dated 2004).

Experiment: log P determination by HPLC (EEC directive 79/831 Annex V. A8)
Assay type: physicochemical
[1] = HPLC, gradient method, acetonitrile/0.1% aqueous phosphoric acid

Row | SMILES | chromatographic logP [1] | other results
1 | CON=C(C(=O)N(C)O)c1ccccc1Oc1ncnc(Oc2ccccc2Cl)c1F [Example 1] |  | logP (HPLC): 2.82
2 | CON=C(C(=O)NO)c1ccccc1Oc1ncnc(Oc2ccccc2Cl)c1F [Example 2, 2-(2-{[6-(2-Chlorophenoxy)-5-fluoro-4-pyrimidinyl]oxy}phenyl)-N-hydroxy-2-(methoxyimino)-acetamide] |  | chromatographic logP (HPLC): 2.56
3 | CON=C(C(=O)N(C)OC(C)=O)c1ccccc1Oc1ncnc(Oc2ccccc2Cl)c1F [Example 3, N-(Acetyloxy)-2-(2-{[6-(2-chlorophenoxy)-5-fluoro-4-pyrimidinyl]oxy}phenyl)-2-(methoxyimino)-N-methylacetamide] |  | chromatographic logP (HPLC (gradient method)): 3.52
4 | CON=C(C(=O)N(C)O)c1ccccc1Oc1ncnc(Oc2ccccc2F)c1F [Example 4] | 2.66 | 
5 | CON=C(C(=O)N(C)O)c1ccccc1Oc1ncnc(Oc2cccc(Cl)c2C)c1F [Example 5] | 3.29 | 
6 | CON=C(C(=O)N(C)O)c1ccccc1Oc1ncnc(Oc2cc(Cl)ccc2Cl)c1F [Example 6] | 3.28 | 
7 | CON=C(C(=O)N(C)O)c1ccccc1Oc1ncnc(Oc2cccc(Cl)c2Cl)c1F [Example 7] | 3.22 | 
8 | CON=C(C(=O)N(C)O)c1ccccc1Oc1ncnc(Oc2ccccc2C#N)c1F [Example 8] | 2.43 | 
9 | CON=C(C(=O)N(C)OC)c1ccccc1Oc1ncnc(Oc2ccccc2Cl)c1F [Example 9] | 3.5 | 
10 | CON=C(C(=O)OC)c1ccccc1Oc1ncnc(Oc2ccccc2Cl)c1F [Example (VI-1), Methyl 2-{2-[6-(2-chlorophenoxy)-5-fluoro-pyrimidin-4-yloxy]-phenyl}-2-methoxyiminoacetate] |  | chromatographic logP (HPLC): 3.61
